For series [1] the following is noted: intravenous NTG, human; cited from earlier work.
The nature of series [2]: Development of tolerance to systemic effects of NTG in humans. It counts as in vivo, human. An excerpt: Therefore, it is advantageous to induce NTG tolerance by gradually increasing dosage, thus increasing the neuronal protective effect.
To illustrate the development of systemic tolerance, a human patient could be made tolerant by intravenous administration of NTG within 18-24 hr of continuous infusion (see for example, J. E. Shaffer, B. -A. Han, W. H. Chern, and F. W. Lee, J. Pharmacol. Exper. Therap., 1992;260:286-293; D. C. May, J. J. Popma, Wh. H. Black, S. Scahaffer, H. R. Lee, B. D. Levine, and L. D. Hillis, New Engl. J. Med. 1987;317:805-809; C. M. Newman, J. B. Warren, G. W. Taylor, A. R. Boobis, and D. S. Davis, Br. J. Pharmacol. 1990;99:825-829). Oral, nasal spray, or sublingual NTG could also be used to induce systemic tolerance.
Another, perhaps easier, method for making humans tolerant within 24 hours to the systemic effects of NTG is to administer nitroglycerin as nitropaste or as a transdermal patch for transdermal delivery, for instance, as follows: 1/2inch every 4 to 6 hours, while monitoring the blood pressure (to see when hypotension subsides from the applied nitropaste). As tolerated (e.g., in the absence of sudden drops in blood pressure), the dose of nitropaste is increased to up to 3 inches with each administration. Under these conditions, tolerance (as evidenced by no effect on systemic blood pressure) will develop in 18-24 hours or less. […]

Series [3] relates to cortical neurons (NMDA receptor-mediated neurotoxicity). Briefly: Neurotoxicity assay: survival of cortical neurons after DTT and NMDA exposure. Format: cell-based, rat. As to conditions: NTG 100 μM (30 μM NMDA, 30 min); SNP 400 μM (75 μM NMDA, 5 min); FIGS. 6A and 6B. On the procedure:
To test compounds for their ability to prevent neurotoxicity, neuronal cell death may be assayed as follows. […] The candidate compound is tested by addition (e.g., in a series of concentrations ranging from 0.1 nM-10 mM) after DTT treatment but before NMDA treatment. The candidate compound can be added for minutes, hours, or even days prior to its washout period. […] Neuronal cultures are scored for cell survival after this overnight incubation because NMDA toxicity is often delayed by several hours following NMDA exposure.
Using the neurotoxicity assay described above, the compounds sodium nitroprusside and nitroglycerin were tested individually for their ability to increase survival of neonatal cortical neurons.
As shown in FIG. 6A-6D, surviving neurons are expressed as the percentage of viable neurons in the control culture dishes in the same experiment. The concentrations of drugs were as follows: APV (2 mM), NTG (100 μM), SNP (400 μM), DTT (0.5-2 mM), and reduced Hb (500 μM). […] Values are mean ±SEM for experiments run in triplicate on sibling cultures on separate days (total of 32 experiments). Astericks indicate significant difference compared with the value for DTT-NMDA exposure, P<0.05 (ANOVA followed by Scheffe multiple comparison of means.

For series [4], the system named is NMDA receptor (cortical neurons). The series can be described thus: Patch-clamp recording of NMDA-evoked current in cortical neurons. It counts as cell-based, rat (Sprague-Dawley). (In general: The patch-clamp technique gives a direct electrical read-out from membranes.)

Entries after “also recorded” stand apart in the source; their conditions may differ.

Take `O=[N+]([O-])OCC(CO[N+](=O)[O-])O[N+](=O)[O-]` [NTG, 1,2,3-propanetriol trinitrate]: the “Time to systemic tolerance, intravenous continuous infusion” value in series [1] is 18 to 24 h. Besides, the “Time to systemic tolerance, nitropaste or transdermal patch” value in series [2] (no effect on systemic blood pressure, nitropaste dose escalated up to 3 inches, "will develop in 18-24 hours or less") was 18 to 24 h. The “Tolerance to undesired systemic effects” value in series [2] (systemic effects e.g. blood pressure drop, coronary artery dilation or headache) is listed as “patients can be made tolerant to the undesired systemic effects of NTG”. In addition, the “Effect on neuronal injury engendered by NMDA after exposure to DTT” value in series [3] is reported as “ameliorated neuronal injury”. Besides, the “Effect on NMDA-evoked current” value in series [4] (50 μM NMDA + 1 μM glycine, -60 mV, DTT 2 mM, NTG 500 μM, DTNB 500 μM, 2 min exposure, washout, FIG. 4) is “attenuated; also recorded: inhibited the responses”. Besides, the “Effect on amplitude of NMDA evoked current following alkylation with NEM” value in series [4] (after 1-5 mM NEM) was “neither NTG nor DTNB significantly affected the amplitude of NMDA evoked current”.
